The test system of this assay is Ba/F3-EGFR^L858R/T790M/C797S nude mouse transplantation tumors. Description: In-vivo efficacy in Ba/F3-EGFR^L858R/T790M/C797S xenograft (CDX). Conditions: 13 days. Set-up: species or system BALB/c nude mice. Here is the method:
In-vivo efficacy: The compounds of the present invention have excellent in-vivo anti-tumor efficacy and are dose-dependent
In-vivo efficacy experiments were conducted on BALB/c nude mice subcutaneously implanted with Ba/F3-EGFR^L858R/T790M/C797S derived xenograft (CDX). BALB/c nude mice, female, 6-8 weeks old, weighing approximately 18-22 grams, were raised in an SPF-level environment with separate ventilation for each cage (5 mice per cage). All cages, beddings, and water were disinfected before use. All the animals were free to access standard certified commercial laboratory diets. A total of 48 mice were purchased from Beijing Vital River for research. Each mouse was subcutaneously implanted with […] in the right axilla for tumor growth. The experiment began when the average tumor volume reached about 70 cubic millimeters. The experimental compounds were for oral administration daily, with compound 24 (45 mg/kg, 75 mg/kg respectively) and compound 51 (100 mg/kg) administered continuously for 13 days.

`CCc1cc(Nc2ncc(Cl)c(Nc3ccc(C)c(C)c3P(C)(C)=O)n2)c(OC)cc1N1CCC(N2C[C@H]3CC[C@@H](C2)N3C)CC1` [Compound 51, (6-((5-chloro-2-((5-ethyl-2-methoxy-4-(4-((1R,5S)-8-methyl-3,8-diazabicyclo[3.2.1]octan-3-yl)piperidin-1-yl)phenyl)amino)pyrimidin-4-yl)amino)-2,3-dimethylphenyl)dimethylphosphine oxide]: the TGI % (100 mg/kg/day oral) was 83.07%.

Turning to `CCc1cc(Nc2ncc(Cl)c(Nc3ccc(C)c(C)c3P(C)(C)=O)n2)c(OC)cc1N1CC2(CCN(C)CC2)C1` [Compound 24, (6-((5-Chloro-2-((5-ethyl-2-methoxy-4-(7-methyl-2,7-diazaspiro[3.5]non-2-yl)phenyl)amino)pyrimidin-4-yl)amino)-2,3-dimethylphenyl)dimethylphosphine oxide], the TGI % runs as follows: (45 mg/kg/day oral) 84.74%; (75 mg/kg/day oral) 99.06%.
